Experimental data reported in ChEMBL document CHEMBL3046732, “Synthesis and biological evaluation of new [1,3,4]thiadiazepino[7,6-b]quinolin-2-amines as potent anti-microbial agents” (2013).

Columns and labels:
[1] = test system: Trichoderma reesei; assay: Antimicrobial activity against Trichoderma reesei assessed as growth inhibition by microdilution method; format: functional
[2] = test system: Curvularia australiensis; assay: Antimicrobial activity against Curvularia australiensis assessed as growth inhibition by microdilution method; format: functional
[3] = test system: Klebsiella aerogenes; assay: Antimicrobial activity against Enterobacter aerogenes assessed as growth inhibition by microdilution method
[4] = test system: Alternaria alternata; assay: Antimicrobial activity against Alternaria alternata assessed as growth inhibition by microdilution method; format: functional
[5] = test system: Bacillus subtilis; assay: Antimicrobial activity against Bacillus subtilis assessed as growth inhibition by microdilution method
[6] = test system: Escherichia coli; assay: Antimicrobial activity against Escherichia coli assessed as growth inhibition by microdilution method
[7] = test system: Staphylococcus aureus; assay: Antimicrobial activity against Staphylococcus aureus assessed as growth inhibition by microdilution method
[8] = test system: Aspergillus niger; assay: Antimicrobial activity against Aspergillus niger assessed as growth inhibition by microdilution method; format: functional
[9] = test system: Streptococcus pyogenes; assay: Antimicrobial activity against Streptococcus pyogenes assessed as growth inhibition by microdilution method
[10] = test system: Aspergillus flavus; assay: Antimicrobial activity against Aspergillus flavus assessed as growth inhibition by microdilution method; format: functional
[11] = test system: Salmonella typhimurium; assay: Antimicrobial activity against Salmonella enterica subsp. enterica serovar Typhimurium assessed as growth inhibition by microdilution method

MIC [1] [µg/mL]	MIC [2] [µg/mL]	MIC [3] [µg/mL]	MIC [4] [µg/mL]	MIC [5] [µg/mL]	MIC [6] [µg/mL]	MIC [7] [µg/mL]	MIC [8] [µg/mL]	MIC [9] [µg/mL]	MIC [10] [µg/mL]	MIC [11] [µg/mL]	Structure (SMILES)
125	1000	500	1000	500	1000	500	250	500	125	1000	Cc1ccc2nc3c(cc2c1)C=NN=C(Nc1ccccc1C)S3
500	1000	> 1000	500	1000	> 1000	> 1000	500	> 1000	1000	> 1000	CCc1ccc(NC2=NN=Cc3cc4cc(C)ccc4nc3S2)cc1
250	500	1000	500	> 1000	500	1000	500	> 1000	500	1000	Cc1ccc2nc3c(cc2c1)C=NN=C(NCCN1CCOCC1)S3
1000	500	125	500	500	500	500	500	60	500	60	COc1ccc2nc3c(cc2c1)C=NN=C(Nc1ccccc1)S3
250	500	> 1000	125	1000	1000	500	500	500	500	> 1000	COc1ccc2nc3c(cc2c1)C=NN=C(Nc1ccccc1F)S3
500	> 1000	500	1000	1000	> 1000	1000	1000	500	500	500	Cc1ccc2nc3c(cc2c1)C=NN=C(Nc1ccccc1)S3
1000	> 1000	60	1000	1000	1000	500	> 1000	1000	> 1000	1000	Cc1ccc2nc3c(cc2c1)C=NN=C(Nc1ccccc1F)S3
1000	> 1000	> 1000	500	> 1000	> 1000	> 1000	1000	> 1000	1000	> 1000	Cc1ccc2nc3c(cc2c1)C=NN=C(Nc1cccc(F)c1)S3
500	1000	250	500	1000	1000	1000	1000	> 1000	1000	1000	Cc1ccc2nc3c(cc2c1)C=NN=C(Nc1cccc(Cl)c1)S3

Continued, molecule first:

Structure (SMILES)	MIC [1] [µg/mL]	MIC [2] [µg/mL]	MIC [3] [µg/mL]	MIC [4] [µg/mL]	MIC [5] [µg/mL]	MIC [6] [µg/mL]	MIC [7] [µg/mL]	MIC [8] [µg/mL]	MIC [9] [µg/mL]	MIC [10] [µg/mL]	MIC [11] [µg/mL]
Cc1ccc(NC2=NN=Cc3cc4cc(C)ccc4nc3S2)cc1	500	1000	60	500	1000	1000	> 1000	1000	1000	1000	60
Cc1ccc2nc3c(cc2c1)C=NN=C(Nc1c(C)cccc1C)S3	250	1000	1000	500	1000	1000	1000	1000	1000	1000	1000
Cc1ccc(NC2=NN=Cc3cc4cc(C)ccc4nc3S2)c(C)c1	125	500	500	500	500	500	500	1000	500	500	500
Cc1ccc2nc3c(cc2c1)C=NN=C(NCc1ccccc1)S3	500	1000	1000	1000	1000	1000	1000	1000	1000	> 1000	1000
Cc1ccc2nc3c(cc2c1)C=NN=C(Nc1ccc(F)cc1)S3	1000	> 1000	125	1000	250	500	250	1000	500	> 1000	250
Cc1ccc2nc3c(cc2c1)C=NN=C(Nc1ccccc1Cl)S3	1000	1000	60	1000	1000	500	1000	> 1000	500	500	1000
Cc1ccc2nc3c(cc2c1)C=NN=C(Nc1ccc(Cl)cc1)S3	500	500	1000	30	1000	> 1000	1000	500	> 1000	1000	> 1000
